The structures appear in SMILES notation. Positions of bridges follow the written chain, without caps; N, C: chain ends. Non-standard residues stand in square brackets, D forms with d. Residues, ends and D or L forms follow the SMILES beside them. ξ: configuration not given here. Phe(4-CH2NH2) = NCc1ccc(C[C@H](N)C(=O)O)cc1; Bip = N[C@@H](Cc1ccc(-c2ccccc2)cc1)C(=O)O; dPro(4S-NH2) = N[C@@H]1CN[C@@H](C(=O)O)C1; Phe(3-CN) = N#Cc1cccc(C[C@H](N)C(=O)O)c1; Phe(3-OMe) = COc1cccc(C[C@H](N)C(=O)O)c1; Phe(2-Me) = Cc1ccccc1C[C@H](N)C(=O)O; NMeF = CN[C@@H](Cc1ccccc1)C(=O)O; 4Pal = N[C@@H](Cc1ccncc1)C(=O)O; dHyp = O=C(O)[C@H]1C[C@H](O)CN1; dTic = O=C(O)[C@H]1Cc2ccccc2CN1; Cit = NC(=O)NCCC[C@H](N)C(=O)O; dOrn = NCCC[C@@H](N)C(=O)O; NMeA = CN[C@@H](C)C(=O)O; Orn = NCCC[C@H](N)C(=O)O; Dab = NCC[C@H](N)C(=O)O; ξV = CC(C)C(N)C(=O)O; Sar = CNCC(=O)O

This test has as its target T1, human PD-1 (Jurkat-PD-1 cells) / PE-labeled human PD-L1-Ig (Homo sapiens, UniProt Q15116).
T1 construct: expressed in transfected cells; host or cells: Jurkat cell line over-expressing human PD-1
The experiment in a line: Jurkat-PD-1 Cell Binding High-Content Screening Assay (CBA); Jurkat hPD1-PDL1 assay. Particulars: Jurkat cell line over-expressing human PD-1; PE-labeled PD-L1-Ig 20 nM final; compound incubated 2 hours at 37° C.; read-out: Jurkat HPD1-PDL1 IC50. A digest of the protocol:
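Binding of phycoerythrin-conjugated PD-L1-Ig (20 nM final) to PD-1-overexpressing Jurkat cells was read by high-content imaging. Cells in DMEM/10% FCS were exposed to compound for 2 hours at 37° C before labeled ligand was added.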

T1 sequence (Q15116 25-288): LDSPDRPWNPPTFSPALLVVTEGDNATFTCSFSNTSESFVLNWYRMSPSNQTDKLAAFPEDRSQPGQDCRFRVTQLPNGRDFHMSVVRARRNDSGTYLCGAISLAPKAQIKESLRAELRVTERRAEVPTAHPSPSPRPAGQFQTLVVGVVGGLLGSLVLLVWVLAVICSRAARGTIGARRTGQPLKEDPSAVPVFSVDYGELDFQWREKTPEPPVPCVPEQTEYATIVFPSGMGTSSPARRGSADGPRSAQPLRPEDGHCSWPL

Consider `CC(C)C[C@@H]1NC(=O)[C@H](Cc2c[nH]c3ccccc23)NC(=O)[C@H](CC(=O)O)NC(=O)[C@H](Cc2ccc(O)cc2)NC(=O)[C@H](Cc2ccccc2)NC(=O)CSC[C@@H](C(=O)NCC(N)=O)NC(=O)[C@H]([C@@H](C)O)NC(=O)[C@H](C(C)C)NC(=O)[C@H](CC(C)C)NC(=O)[C@H](CC(N)=O)NC(=O)[C@H]2CCCN2C(=O)[C@H](CCN)NC(=O)[C@H](C(C)C)NC(=O)[C@H](Cc2ccc(-c3ccccc3)cc2)NC1=O` [Example 1411] ({CH2CO}-FYDWL[Bip]V[Dab][dP]NLVTCG-NH2; thioether N-14), for which the IC50 was found to be 440 nM.
The figure for `CC(C)C[C@@H]1NC(=O)[C@H](Cc2c[nH]c3ccccc23)NC(=O)[C@H](CC(=O)O)NC(=O)[C@H](Cc2ccc(O)cc2)NC(=O)[C@H](Cc2ccccc2)NC(=O)CSC[C@@H](C(=O)N[C@@H](C)C(N)=O)NC(=O)[C@H]([C@@H](C)O)NC(=O)[C@H](C(C)C)NC(=O)[C@H](CC(C)C)NC(=O)[C@H](CC(N)=O)NC(=O)[C@H]2CCCN2C(=O)[C@H](CCN)NC(=O)[C@H](C(C)C)NC(=O)[C@H](Cc2ccc(-c3ccccc3)cc2)NC1=O` [Example 1412] ({CH2CO}-FYDWL[Bip]V[Dab][dP]NLVTCA-NH2; thioether N-14) is 480 nM; for `CC(C)C[C@@H]1NC(=O)[C@H](Cc2c[nH]c3ccccc23)NC(=O)[C@H](CC(=O)O)NC(=O)[C@H](Cc2ccc(O)cc2)NC(=O)[C@H](Cc2ccccc2)NC(=O)CSC[C@@H](C(=O)N[C@@H](C)C(N)=O)NC(=O)[C@H](CO)NC(=O)[C@H](C(C)C)NC(=O)[C@H](CC(C)C)NC(=O)[C@H](CC(N)=O)NC(=O)[C@H]2C[C@H](N)CN2C(=O)[C@H](C)N(C)C(=O)[C@H](C(C)C)NC(=O)[C@H](Cc2ccc(-c3ccccc3)cc2)NC1=O` [Example 1091] ({CH2CO}-FYDWL[Bip]V[NMeA][dPro(4S-NH2)]NLVSCA-NH2; thioether N-14) it is 260 nM.
The figure for `CC(C)C[C@@H]1NC(=O)[C@H](CC(N)=O)NC(=O)CN(C)C(=O)[C@H](C)N(C)C(=O)[C@H](C(C)C)NC(=O)[C@H](Cc2ccc(-c3ccccc3)cc2)NC(=O)[C@H](CC(C)C)NC(=O)[C@H](Cc2c[nH]c3ccccc23)NC(=O)[C@H](CC(=O)O)NC(=O)[C@H](Cc2ccc(O)cc2)NC(=O)[C@H](Cc2ccccc2)NC(=O)CSC[C@@H](C(=O)NCC(N)=O)NC(=O)[C@H](CO)NC(=O)[C@H](C)NC1=O` [Example 1111] ({CH2CO}-FYDWL[Bip]V[NMeA][Sar]NLASCG-NH2; thioether N-14) is 350 nM; for `CC(C)C[C@@H]1NC(=O)[C@H](Cc2c[nH]c3ccccc23)NC(=O)[C@H](CC(=O)O)NC(=O)[C@H](Cc2ccc(O)cc2)NC(=O)[C@H](Cc2ccc(CN)cc2)NC(=O)CSC[C@@H](C(=O)NCC(N)=O)NC(=O)[C@H](CO)NC(=O)[C@H](C(C)C)NC(=O)[C@H](CC(C)C)NC(=O)[C@H](CC(N)=O)NC(=O)CN(C)C(=O)[C@H](C)N(C)C(=O)[C@H](C(C)C)NC(=O)[C@H](Cc2ccc(-c3ccccc3)cc2)NC1=O` [Example 1160] ({CH2CO}-[Phe(4-CH2NH2)]YDWL[Bip]V[NMeA][Sar]NLVSCG-NH2; thioether N-14) it is 870 nM.
Take `CC(C)C[C@@H]1NC(=O)[C@H](Cc2c[nH]c3ccccc23)NC(=O)[C@H](CC(=O)O)NC(=O)[C@H](Cc2ccc(O)cc2)NC(=O)[C@H](Cc2ccccc2)NC(=O)CSC[C@@H](C(=O)N[C@@H](C)C(N)=O)NC(=O)[C@H](CO)NC(=O)[C@H](C(C)C)NC(=O)[C@H](CC(C)C)NC(=O)[C@H](CC(N)=O)NC(=O)CN(C)C(=O)[C@H]2C[C@H](O)CN2C(=O)C(C(C)C)NC(=O)[C@H](Cc2ccc(-c3ccccc3)cc2)NC1=O` (stereo partly drawn) [Example 1003] ({CH2CO}-FYDWL[Bip][ξV][dHyp][Sar]NLVSCA-NH2; thioether N-14): the IC50 was 760 nM.
With `COc1cccc(C[C@@H]2NC(=O)[C@H](CC(=O)O)NC(=O)[C@H](Cc3ccc(O)cc3)NC(=O)[C@H](CC(N)=O)NC(=O)CSC[C@@H](C(=O)N[C@@H](C)C(N)=O)NC(=O)[C@H]([C@@H](C)O)NC(=O)[C@H](C(C)C)NC(=O)[C@H](CC(C)C)NC(=O)[C@H](CCN)NC(=O)[C@H](Cc3ccccc3)N(C)C(=O)[C@H](C)N(C)C(=O)[C@H](CCCNC(N)=O)NC(=O)[C@H](Cc3ccc(-c4ccccc4)cc3)NC(=O)[C@H](C(C)C)NC2=O)c1` [Example 1375] ({CH2CO}-NYD[Phe(3-OMe)]V[Bip][Cit][NMeA][NMeF][Dab]LVTCA-NH2; thioether N-14) the figure was 80 nM.
Take `Cc1ccccc1C[C@@H]1NC(=O)[C@H](CC(=O)O)NC(=O)[C@H](Cc2ccc(O)cc2)NC(=O)[C@H](Cc2ccccc2)NC(=O)CSC[C@@H](C(=O)N[C@@H](C)C(N)=O)NC(=O)[C@H](CO)NC(=O)[C@H](C(C)C)NC(=O)[C@H](CC(C)C)NC(=O)[C@H](CC(N)=O)NC(=O)CN(C)C(=O)[C@H](C)N(C)C(=O)[C@H](C(C)C)NC(=O)[C@H](Cc2ccc(-c3ccccc3)cc2)NC(=O)[C@H](CC(C)C)NC1=O` [Example 1172] ({CH2CO}-FYD[Phe(2-Me)]L[Bip]V[NMeA][Sar]NLVSCA-NH2; thioether N-14): the half-inhibitory concentration (IC50) came to 950 nM.
In the case of `CC(C)C[C@@H]1NC(=O)[C@H](C)NC(=O)CN(C)C(=O)[C@H](C)N(C)C(=O)[C@H](C(C)C)NC(=O)[C@H](Cc2ccc(-c3ccccc3)cc2)NC(=O)[C@H](CC(C)C)NC(=O)[C@H](Cc2c[nH]c3ccccc23)NC(=O)[C@H](CC(=O)O)NC(=O)[C@H](Cc2ccc(O)cc2)NC(=O)[C@H](Cc2ccccc2)NC(=O)CSC[C@@H](C(=O)N[C@@H](C)C(N)=O)NC(=O)[C@H](CO)NC(=O)[C@H](C(C)C)NC1=O` [Example 1158] ({CH2CO}-FYDWL[Bip]V[NMeA][Sar]ALVSCA-NH2; thioether N-14), the IC50 is 840 nM.
With `CC(C)C[C@@H]1NC(=O)[C@H](Cc2c[nH]c3ccccc23)NC(=O)[C@H](CC(=O)O)NC(=O)[C@H](Cc2ccc(O)cc2)NC(=O)[C@H](Cc2ccccc2)NC(=O)CSC[C@@H](C(=O)NCC(N)=O)NC(=O)[C@H](CO)NC(=O)[C@H](C(C)C)NC(=O)[C@H](CC(C)C)NC(=O)[C@H](CO)NC(=O)CN(C)C(=O)[C@H](C)N(C)C(=O)[C@H](C(C)C)NC(=O)[C@H](Cc2ccc(-c3ccccc3)cc2)NC1=O` [Example 1225] ({CH2CO}-FYDWL[Bip]V[NMeA][Sar]SLVSCG-NH2; thioether N-14) the figure was 960 nM; with `COc1cccc(C[C@@H]2NC(=O)[C@H](CC(=O)O)NC(=O)[C@H](Cc3cccc(C#N)c3)NC(=O)[C@H](Cc3ccncc3)NC(=O)CSC[C@@H](C(=O)N[C@@H](C)C(N)=O)NC(=O)[C@H](CO)NC(=O)[C@H](C(C)C)NC(=O)[C@H](CC(C)C)NC(=O)[C@H](CC(N)=O)NC(=O)[C@H]3CCCN3C(=O)[C@H](C)N(C)C(=O)[C@H](C(C)C)NC(=O)[C@H](Cc3ccc(-c4ccccc4)cc3)NC(=O)[C@H](CC(C)C)NC2=O)c1` [Example 1388] ({CH2CO}-[4Pal][Phe(3-CN)]D[Phe(3-OMe)]L[Bip]V[NMeA][dP]NLVSCA-NH2; thioether N-14), 20 nM; with `CC(C)C[C@@H]1NC(=O)[C@H](CCCN)NC(=O)[C@H]2Cc3ccccc3CN2C(=O)[C@H](C)N(C)C(=O)[C@H](CCCNC(=N)N)NC(=O)[C@H](Cc2ccc(-c3ccccc3)cc2)NC(=O)[C@H](C(C)C)NC(=O)[C@H](Cc2c[nH]c3ccccc23)NC(=O)[C@H](CC(=O)O)NC(=O)[C@H](Cc2ccc(O)cc2)NC(=O)[C@H](CC(N)=O)NC(=O)CSC[C@@H](C(=O)N[C@@H](C)C(N)=O)NC(=O)[C@H]([C@@H](C)O)NC(=O)[C@H](C(C)C)NC1=O` [Example 1356] ({CH2CO}-NYDWV[Bip]R[NMeA][dTic][Orn]LVTCA-NH2; thioether N-14), 270 nM.
With `CC(C)C[C@@H]1NC(=O)[C@H](CCCNC(=N)N)NC(=O)[C@H](Cc2ccccc2)N(C)C(=O)[C@H](C)N(C)C(=O)[C@H](CCCNC(=N)N)NC(=O)[C@H](Cc2ccc(-c3ccccc3)cc2)NC(=O)[C@H](C(C)C)NC(=O)[C@H](Cc2c[nH]c3ccccc23)NC(=O)[C@H](CC(=O)O)NC(=O)[C@H](Cc2ccc(O)cc2)NC(=O)[C@H](Cc2ccccc2)NC(=O)CSC[C@@H](C(=O)N[C@@H](C)C(N)=O)NC(=O)[C@H]([C@@H](C)O)NC(=O)[C@H](C(C)C)NC1=O` [Example 1358] ({CH2CO}-FYDWV[Bip]R[NMeA][NMeF]RLVTCA-NH2; thioether N-14) the figure was 400 nM; with `CC(C)C[C@@H]1NC(=O)[C@H](Cc2c[nH]c3ccccc23)NC(=O)[C@H](CC(=O)O)NC(=O)[C@H](Cc2ccc(O)cc2)NC(=O)[C@H](Cc2ccccc2)NC(=O)CSC[C@@H](C(=O)N[C@@H](C)C(N)=O)NC(=O)[C@H](CO)NC(=O)[C@H](C(C)C)NC(=O)[C@H](CC(C)C)NC(=O)[C@H](CC(N)=O)NC(=O)CN(C)C(=O)[C@@H](CCCN)NC(=O)[C@H](C(C)C)NC(=O)[C@H](Cc2ccc(-c3ccccc3)cc2)NC1=O` [Example 1198] ({CH2CO}-FYDWL[Bip]V[dOrn][Sar]NLVSCA-NH2; thioether N-14), 760 nM.
As for `CC(C)C[C@@H]1NC(=O)[C@H](Cc2c[nH]c3ccccc23)NC(=O)[C@H](CC(=O)O)NC(=O)[C@H](Cc2ccc(O)cc2)NC(=O)[C@H](Cc2ccccc2)NC(=O)CSC[C@@H](C(=O)N[C@@H](CCN)C(N)=O)NC(=O)[C@H](CO)NC(=O)[C@H](C(C)C)NC(=O)[C@H](CC(C)C)NC(=O)[C@H](CC(N)=O)NC(=O)CN(C)C(=O)[C@H](C)N(C)C(=O)[C@H](C(C)C)NC(=O)[C@H](Cc2ccc(-c3ccccc3)cc2)NC1=O` [Example 1103] ({CH2CO}-FYDWL[Bip]V[NMeA][Sar]NLVSC[Dab]-NH2; thioether N-14), the IC50 stood at 310 nM.
